What follows are compounds tested against T1, p53 Y220C (Homo sapiens, UniProt P04637, Y220C) (assay: In vitro DNA binding activity assay (HTRF / TR-FRET): stabilization of p53 Y220C and increase of its DNA binding activity). Conditions: recombinant His-tagged p53 Y220C DNA binding domain (aa 94-312), biotin-labeled consensus DNA, incubated at 27° C. or 29° C. for 60 min.
T1 construct: The recombinant protein was a truncation mutant containing only amino acids 94-312 of p53; made in house; host or cells: E. coli
Format: biochemical
Procedure, shortened: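 His-tagged p53 Y220C, E. coli-expressed, binding biotin-labeled consensus DNA measured by HTRF (anti-His-APC, streptavidin-europium). Compounds from 4.5 mM DMSO stocks, 3-fold serial dilutions; incubations at room temperature 15 min, then 20 min. SC150 = concentration raising DNA binding by 50%.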

T1 sequence (P04637 94-312, change not shown): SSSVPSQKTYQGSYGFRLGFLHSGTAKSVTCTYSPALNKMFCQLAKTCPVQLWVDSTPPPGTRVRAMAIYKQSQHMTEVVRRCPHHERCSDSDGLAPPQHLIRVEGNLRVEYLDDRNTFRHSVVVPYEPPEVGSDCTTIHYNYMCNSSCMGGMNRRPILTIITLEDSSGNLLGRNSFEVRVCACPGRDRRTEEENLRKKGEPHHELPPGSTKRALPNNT

**Q.** Which “SC150 (concentration of the compound required to increase the DNA binding activity by 50%)” value does the source give for `CN1CC[C@@H](Nc2cccc3c2cc(C#CCO)n3CC(F)(F)F)[C@@H](F)C1` [Compound 895A, 3-(4-(((3S,4R)-3-fluoro-1-methylpiperidin-4-yl)amino)-1-(2,2,2-trifluoroethyl)-1H-indol-2-yl)prop-2-yn-1-ol] here?
**A.** +++ (+++ = 0.1 μM ≤ SC150 < 0.2 μM)

**Q.** For `COc1cc(C(=O)NCC(=O)O)ccc1NCC#Cc1cc2c(N[C@@H]3CCN(C)C[C@@H]3F)cccc2n1CC(F)(F)F` [Compound 896A, (4-((3-(4-(((3S,4R)-3-fluoro-1-methylpiperidin-4-yl)amino)-1-(2,2,2-trifluoroethyl)-1H-indol-2-yl)prop-2-yn-1-yl)amino)-3-methoxybenzoyl)glycine], which “SC150 (concentration of the compound required to increase the DNA binding activity by 50%)” value is on record?
**A.** + (+ = 0 μM ≤ SC150 < 0.05 μM)

**Q.** `COCCN1CC[C@@H](Nc2cccc3c2cc(C#CCNc2ccc(C(=O)OC)cc2OC)n3CC(F)(F)F)[C@@H](F)C1` [Compound 897A] was tested. Which “SC150 (concentration of the compound required to increase the DNA binding activity by 50%)” value did it give?
**A.** + (+ = 0 μM ≤ SC150 < 0.05 μM)

**Q.** `COCCN1CC[C@@H](Nc2cccc3c2cc(C#CCNc2ccc(C(=O)O)cc2OC)n3CC(F)(F)F)[C@@H](F)C1` [Compound 898A] was tested. Which “SC150 (concentration of the compound required to increase the DNA binding activity by 50%)” value did it give?
**A.** + (+ = 0 μM ≤ SC150 < 0.05 μM)

**Q.** With `COC(=O)c1ccc(NCC#Cc2cc3c(N[C@@H]4CCN(CCO)C[C@@H]4F)cccc3n2CC(F)(F)F)c(OC)c1` [Compound 899A, methyl 4-{[3-(4-{[(3S,4R)-3-fluoro-1-(2-hydroxyethyl)piperidin-4-yl]amino}-1-(2,2,2-trifluoroethyl)-1H-indol-2-yl)prop-2-yn-1-yl]amino}-3-methoxybenzoate] as the compound, how does the “SC150 (concentration of the compound required to increase the DNA binding activity by 50%)” value read?
**A.** + (+ = 0 μM ≤ SC150 < 0.05 μM)

**Q.** For `COC(=O)c1ccc(NCC#Cc2cc3c(N[C@@H]4CCN(CC(N)=O)C[C@@H]4F)cccc3n2CC(F)(F)F)c(OC)c1` [Compound 901A, methyl 4-{[3-(4-{[(3S,4R)-1-(carbamoylmethyl)-3-fluoropiperidin-4-yl]amino}-1-(2,2,2-trifluoroethyl)-1H-indol-2-yl)prop-2-yn-1-yl]amino}-3-methoxybenzoate], which “SC150 (concentration of the compound required to increase the DNA binding activity by 50%)” value is on record?
**A.** + (+ = 0 μM ≤ SC150 < 0.05 μM)

**Q.** For `COCCN1CC[C@H](Nc2cccc3c2cc(C#CCNc2ccc(C(=O)OC)cc2OC)n3CC(F)(F)F)[C@H](F)C1` [Compound 902A], which “SC150 (concentration of the compound required to increase the DNA binding activity by 50%)” value is on record?
**A.** + (+ = 0 μM ≤ SC150 < 0.05 μM)

**Q.** How did the “SC150 (concentration of the compound required to increase the DNA binding activity by 50%)” value turn out when `COC(=O)c1ccc(NCC#Cc2cc3c(N[C@H]4CCN(CCO)C[C@H]4F)cccc3n2CC(F)(F)F)c(OC)c1` [Compound 903A, methyl 4-{[3-(4-{[(3R,4S)-3-fluoro-1-(2-hydroxyethyl)piperidin-4-yl]amino}-1-(2,2,2-trifluoroethyl)-1H-indol-2-yl)prop-2-yn-1-yl]amino}-3-methoxybenzoate] was run?
**A.** + (+ = 0 μM ≤ SC150 < 0.05 μM)

**Q.** `COCCN1CC[C@H](Nc2cccc3c2cc(C#CCNc2ccc(C(=O)O)cc2OC)n3CC(F)(F)F)[C@H](F)C1` [Compound 904A] was tested. Which “SC150 (concentration of the compound required to increase the DNA binding activity by 50%)” value did it give?
**A.** + (+ = 0 μM ≤ SC150 < 0.05 μM)

**Q.** How did the “SC150 (concentration of the compound required to increase the DNA binding activity by 50%)” value turn out when `COC(=O)c1ccc(NCC#Cc2cc3c(N[C@H]4CCN(C[C@@H](C)O)C[C@H]4F)cccc3n2CC(F)(F)F)c(OC)c1` [Compound 905A, methyl 4-{[3-(4-{[(3R,4S)-3-fluoro-1-(2-hydroxypropyl)piperidin-4-yl]amino}-1-(2,2,2-trifluoroethyl)-1H-indol-2-yl)prop-2-yn-1-yl]amino}-3-methoxybenzoate] was run?
**A.** + (+ = 0 μM ≤ SC150 < 0.05 μM)

**Q.** With `COc1cc(C(=O)N2CC3(COC3)C2)ccc1NCC#Cc1cc2c(N[C@@H]3CCN(C)C[C@@H]3F)cccc2n1CC(F)(F)F` [Compound 906A, N-[(3S,4R)-3-fluoro-1-methylpiperidin-4-yl]-2-{3-[(2-methoxy-4-{2-oxa-6-azaspiro[3.3]heptane-6-carbonyl}phenyl)amino]prop-1-yn-1-yl}-1-(2,2,2-trifluoroethyl)-1H-indol-4-amine] as the compound, how does the “SC150 (concentration of the compound required to increase the DNA binding activity by 50%)” value read?
**A.** + (+ = 0 μM ≤ SC150 < 0.05 μM)

**Q.** Which “SC150 (concentration of the compound required to increase the DNA binding activity by 50%)” value does the source give for `COc1cc(C(=O)N2CC3(CCOCC3)C2)ccc1NCC#Cc1cc2c(N[C@@H]3CCN(C)C[C@@H]3F)cccc2n1CC(F)(F)F` [Compound 907A, N-[(3S,4R)-3-fluoro-1-methylpiperidin-4-yl]-2-{3-[(2-methoxy-4-{7-oxa-2-azaspiro[3.5]nonane-2-carbonyl}phenyl)amino]prop-1-yn-1-yl}-1-(2,2,2-trifluoroethyl)-1H-indol-4-amine] here?
**A.** + (+ = 0 μM ≤ SC150 < 0.05 μM)

**Q.** With `COc1cc(C(=O)O)ccc1NCC#Cc1cc2c(N[C@@H]3CCN(CCO)C[C@@H]3F)cccc2n1CC(F)(F)F` [Compound 908A, 4-{[3-(4-{[(3S,4R)-3-fluoro-1-(2-hydroxyethyl)piperidin-4-yl]amino}-1-(2,2,2-trifluoroethyl)-1H-indol-2-yl)prop-2-yn-1-yl]amino}-3-methoxybenzoic acid] as the compound, how does the “SC150 (concentration of the compound required to increase the DNA binding activity by 50%)” value read?
**A.** + (+ = 0 μM ≤ SC150 < 0.05 μM)

**Q.** How did the “SC150 (concentration of the compound required to increase the DNA binding activity by 50%)” value turn out when `COc1cc(C(=O)N2CCOCC2)ccc1NCC#Cc1cc2c(N[C@@H]3CCN(C)C[C@@H]3F)cccc2n1CC(F)(F)F` [Compound 909A] was run?
**A.** + (+ = 0 μM ≤ SC150 < 0.05 μM)

**Q.** `COc1cc(C(=O)O)ccc1NCC#Cc1cc2c(N[C@H]3CCN(CCO)C[C@H]3F)cccc2n1CC(F)(F)F` [Compound 912A, 4-{[3-(4-{[(3R,4S)-3-fluoro-1-(2-hydroxyethyl)piperidin-4-yl]amino}-1-(2,2,2-trifluoroethyl)-1H-indol-2-yl)prop-2-yn-1-yl]amino}-3-methoxybenzoic acid] was tested. Which “SC150 (concentration of the compound required to increase the DNA binding activity by 50%)” value did it give?
**A.** + (+ = 0 μM ≤ SC150 < 0.05 μM)

**Q.** Which “SC150 (concentration of the compound required to increase the DNA binding activity by 50%)” value does the source give for `COC(=O)c1ccc(NCC#Cc2cc3c(N[C@@H]4CCN(CC(=O)N(C)C)C[C@@H]4F)cccc3n2CC(F)(F)F)c(OC)c1` [Compound 913A, methyl 4-{[3-(4-{[(3S,4R)-1-[(dimethylcarbamoyl)methyl]-3-fluoropiperidin-4-yl]amino}-1-(2,2,2-trifluoroethyl)-1H-indol-2-yl)prop-2-yn-1-yl]amino}-3-methoxybenzoate] here?
**A.** + (+ = 0 μM ≤ SC150 < 0.05 μM)

**Q.** Which “SC150 (concentration of the compound required to increase the DNA binding activity by 50%)” value does the source give for `COC(=O)c1ccc(NCC#Cc2cc3c(N[C@H]4CCN(CC(=O)N(C)C)C[C@H]4F)cccc3n2CC(F)(F)F)c(OC)c1` [Compound 914A, methyl 4-{[3-(4-{[(3R,4S)-1-[(dimethylcarbamoyl)methyl]-3-fluoropiperidin-4-yl]amino}-1-(2,2,2-trifluoroethyl)-1H-indol-2-yl)prop-2-yn-1-yl]amino}-3-methoxybenzoate] here?
**A.** + (+ = 0 μM ≤ SC150 < 0.05 μM)

**Q.** For `COC(=O)c1ccc(NCC#Cc2cc3c(N[C@H]4CCN(CC(N)=O)C[C@H]4F)cccc3n2CC(F)(F)F)c(OC)c1` [Compound 915A, methyl 4-{[3-(4-{[(3R,4S)-1-(carbamoylmethyl)-3-fluoropiperidin-4-yl]amino}-1-(2,2,2-trifluoroethyl)-1H-indol-2-yl)prop-2-yn-1-yl]amino}-3-methoxybenzoate], which “SC150 (concentration of the compound required to increase the DNA binding activity by 50%)” value is on record?
**A.** + (+ = 0 μM ≤ SC150 < 0.05 μM)

**Q.** How did the “SC150 (concentration of the compound required to increase the DNA binding activity by 50%)” value turn out when `COc1cc(C(=O)Nc2nccs2)ccc1NCC#Cc1cc2c(N[C@@H]3CCN(C)C[C@@H]3F)cccc2n1CC(F)(F)F` [Compound 917A] was run?
**A.** + (+ = 0 μM ≤ SC150 < 0.05 μM)

**Q.** For `COc1cc(C(=O)N2CCC(O)CC2)ccc1NCC#Cc1cc2c(N[C@@H]3CCN(C)C[C@@H]3F)cccc2n1CC(F)(F)F` [Compound 919A], which “SC150 (concentration of the compound required to increase the DNA binding activity by 50%)” value is on record?
**A.** + (+ = 0 μM ≤ SC150 < 0.05 μM)

**Q.** With `COc1cc(C(=O)O)ccc1NCC#Cc1cc2c(N[C@@H]3CCN(CC(=O)N(C)C)C[C@@H]3F)cccc2n1CC(F)(F)F` [Compound 920A, 4-{[3-(4-{[(3S,4R)-1-[(dimethylcarbamoyl)methyl]-3-fluoropiperidin-4-yl]amino}-1-(2,2,2-trifluoroethyl)-1H-indol-2-yl)prop-2-yn-1-yl]amino}-3-methoxybenzoic acid] as the compound, how does the “SC150 (concentration of the compound required to increase the DNA binding activity by 50%)” value read?
**A.** + (+ = 0 μM ≤ SC150 < 0.05 μM)

**Q.** Which “SC150 (concentration of the compound required to increase the DNA binding activity by 50%)” value does the source give for `CCS(=O)(=O)c1ccc(NCC#Cc2cc3c(N[C@@H]4CCN(C(=O)OC(C)(C)C)C[C@@H]4F)cccc3n2CC(F)(F)F)c(OC)c1` [Compound 922A, tert-butyl (3S,4R)-4-{[2-(3-{[4-(ethanesulfonyl)-2-methoxyphenyl]amino}prop-1-yn-1-yl)-1-(2,2,2-trifluoroethyl)-1H-indol-4-yl]amino}-3-fluoropiperidine-1-carboxylate] here?
**A.** ++ (++ = 0.05 μM ≤ SC150 < 0.1 μM)

**Q.** `COc1cc(C(=O)NCCN2CCOCC2)ccc1NCC#Cc1cc2c(N[C@@H]3CCN(C)C[C@@H]3F)cccc2n1CC(F)(F)F` [Compound 924A, 4-{[3-(4-{[(3S,4R)-3-fluoro-1-methylpiperidin-4-yl]amino}-1-(2,2,2-trifluoroethyl)-1H-indol-2-yl)prop-2-yn-1-yl]amino}-3-methoxy-N-[2-(morpholin-4-yl)ethyl]benzamide] was tested. Which “SC150 (concentration of the compound required to increase the DNA binding activity by 50%)” value did it give?
**A.** + (+ = 0 μM ≤ SC150 < 0.05 μM)

**Q.** `COc1cc(C(=O)O)ccc1NCC#Cc1cc2c(N[C@H]3CCN(CC(N)=O)C[C@H]3F)cccc2n1CC(F)(F)F` [Compound 925A] was tested. Which “SC150 (concentration of the compound required to increase the DNA binding activity by 50%)” value did it give?
**A.** + (+ = 0 μM ≤ SC150 < 0.05 μM)

**Q.** With `COc1cc(C(=O)O)ccc1NCC#Cc1cc2c(N[C@@H]3CCN(CC(N)=O)C[C@@H]3F)cccc2n1CC(F)(F)F` [Compound 926A] as the compound, how does the “SC150 (concentration of the compound required to increase the DNA binding activity by 50%)” value read?
**A.** + (+ = 0 μM ≤ SC150 < 0.05 μM)

From patent US12428406B2 (PMV Pharmaceuticals, Inc., priority 2019, dated 2025)
